Holding throughout (assay): NCI-60 cell line screen, 48 h
Assay [1] has as its system SN12C renal.
The test system of assay [2] is OVCAR-8 ovarian.
The subject of assay [3] is NCI-H226 lung.
The test system of assay [4] is HCT-15 colon.
In assay [5] the test system is COLO 205 colon.
Assay [6] deals with HOP-92 NSCLC.
Assay [7] has as its system SK-MEL-2 melanoma.
Assay [8] deals with K-562 leukemia.
Assay [9] deals with T-47D breast.
Assay [10] relates to IGROV1 ovarian.

From PubChem BioAssay (NCI) come the findings set out here.

The structures appear in SMILES notation. “And” between values parts separate entries of the source, which are not always exact repeats. Equal values may be shown once.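 The compound was tested at five concentrations on cells cultured in 96-well plates, with a 48-hour exposure period. GI50 is the concentration that inhibits growth by half. At the TGI there is no net growth.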 Where a SMILES comes first, the peptide text is derived from it. [ ]: non-standard residue; d: D form. pGlu = O=C1CC[CH](C(=O)O)N1 Where only a bound is given, the exact number is not on record here.

Regarding `O=c1[nH]c(=O)c2cn[nH]c2[nH]1`, the GI50 in assay [1], in [2], in [3], in [4], in [5] and in [6] was more than 100 µM in each case. Besides, the GI50 in assay [7], in assay [8], in assay [9] and in [10] was more than 100 µM each time. Also, the TGI in assay [1], in assay [2], in assay [3], in [4], in assay [5] and in assay [6] was more than 100 µM each time. For the same compound, the TGI in [7], in [8], in assay [9] and in [10] was more than 100 µM each time.

For `CN(CCO)CC[C@H](CSc1ccccc1)Nc1ccc(S(=O)(=O)NC(=O)c2ccc(N3CCC([C@@H](O)c4ccccc4-c4ccc(Cl)cc4)CC3)cc2)cc1S(=O)(=O)C(F)(F)F`, the GI50 in assay [1] is 2.99 µM; in [2], 11.5 µM; in assay [3], 2.5 µM; in assay [4], more than 100 µM; in assay [5], 1.46 µM; in [6], 0.0415 µM. The GI50 in assay [7] was 1.41 µM; in assay [8], 3.4 µM; in assay [9], 4.26 µM; in assay [10], 2.6 µM. Also, the TGI in [1] is 11.5 µM; in assay [2], more than 100 µM; in [3], 7.46 µM; in [4] it was more than 100 µM; in assay [5], 4.5 µM; in [6], 0.387 µM. Also, the TGI in [7] was 4.28 µM; in [8] it was more than 100 µM; in assay [9], 59.6 µM; in [10] it was 6.63 µM.

`COc1cc(C(O)CCBr)c(OC)cc1C` (configuration not stated): the TGI is more than 100 µM in assay [1]; more than 46.8 µM in assay [2]; more than 100 µM in assay [3]; more than 100 µM in assay [4]; more than 57 µM in [5]; more than 100 µM in assay [6]. Moreover, the TGI in assay [7] was 68.2 µM; in assay [8] it was more than 100 µM; in assay [9] it was more than 100 µM; in assay [10], more than 100 µM.

`C/C(=N\NC(=S)N1CC2CCC(CC2)C1)c1nccs1`: the TGI in [1] was 12.5 µM; in assay [2], 13.1 µM; in assay [3], 4.7 µM; in assay [4], 20.4 µM; in [5], 16 µM; in assay [6], 7.21 µM. Further, the TGI in assay [7] is 15.7 µM; in [8] it was 9.9 µM; in assay [9], 14.6 µM; in assay [10], 15 µM.

As for `COC12C=C/C(=C(/C(=O)OCc3cncnc3)C(=O)CCCCCCCCC3(OC)C=C/C(=C(/C(=O)OCc4cncnc4)C(=O)CCCCCCCC1)O3)O2`, the GI50 in [1] is 0.404 µM; in assay [2] it was 0.207 µM; in assay [3] it was 0.656 µM; in assay [4] it was 0.308 µM; in assay [5], 0.587 µM; in assay [6], 1 µM. The GI50 in assay [7] was 1.13 µM; in assay [8], 0.188 µM; in assay [9], 0.232 µM; in assay [10], 0.589 µM. Besides, the TGI in assay [1] was 1.98 µM; in assay [2], more than 50 µM; in assay [3], 1.65 µM; in assay [4], 1.34 µM; in [5], 2.25 µM; in assay [6], 2.18 µM. In addition, the TGI in assay [7] is 18.1 µM; in assay [8], 1.14 µM; in assay [9], more than 50 µM; in assay [10], 1.96 µM.

Consider `CCNC(=O)C1CCCN1C(=O)C(CCCN=C(N)N)NC(=O)C(CC(C)C)NC(=O)C(CC(C)C)NC(=O)C(Cc1ccc(O)cc1)NC(=O)C(CO)NC(=O)C(Cc1c[nH]c2ccccc12)NC(=O)C(Cc1cnc[nH]1)NC(=O)C1CCC(=O)N1` (configuration not stated) ([pGlu]HWSYLLRP-NHEt; configuration not given here), for which the GI50 in assay [1], in assay [2], in [3], in [4], in assay [5] and in assay [6] was more than 100 µM each time. Further, the GI50 in assay [7], in [8], in assay [9] and in [10] was more than 100 µM in each case. In addition, the TGI in assay [1], in assay [2], in assay [3], in assay [4], in assay [5] and in assay [6] was more than 100 µM in each case. Further, the TGI in [7], in assay [8], in [9] and in [10] was more than 100 µM throughout.

Consider `C[C@@]1(C(=O)O)CCC[C@]2(C)C1CC[C@@]13CC(=O)[C@@](CO)(CC[C@]12O)C3` (some centres not stated), for which the GI50 in assay [1] was more than 100 µM; in assay [2] it was more than 100 µM; in assay [3], more than 100 µM; in assay [4], more than 100 µM; in assay [5], 6.16 µM; in assay [6], 11.7 µM. Besides, the GI50 in [7] is more than 100 µM; in assay [8] it was more than 100 µM; in assay [9], 22.2 µM; in assay [10], more than 100 µM. For the same compound, the TGI was more than 100 µM in [1]; more than 100 µM in assay [2]; more than 100 µM in assay [3]; more than 100 µM in assay [4]; more than 100 µM in assay [5]; 97.8 µM in [6]. For the same compound, the TGI in assay [7], in assay [8], in assay [9] and in assay [10] was more than 100 µM each time.

Regarding `COC(=O)c1ccc(-c2nc3cc(Cl)c(Cl)cc3nc2C#N)cc1`, the GI50 in [1] is more than 100 µM; in assay [2], more than 100 µM; in assay [3], more than 100 µM; in [4] it was more than 100 µM; in assay [5], more than 100 µM; in [6] it was 79 µM. For the same compound, the GI50 in assay [7], in assay [8], in assay [9] and in [10] was more than 100 µM in each case. Moreover, the TGI in assay [1], in assay [2], in [3], in assay [4], in assay [5] and in assay [6] was more than 100 µM each time. Further, the TGI in assay [7], in assay [8], in [9] and in assay [10] was more than 100 µM in each case.

As to `COc1cccc(N2CCN(CC(=O)N3CCN(c4nnc(-c5ccc(Cl)cc5)c(-c5ccc(Cl)cc5)n4)CC3)CC2)c1`, the GI50 is 23.1 µM in [1]; 29.4 µM in assay [2]; 88.3 µM in assay [3]; 8.35 µM in assay [4]; 22.2 µM in [5]; 14.7 µM in assay [6]. Also, the GI50 was 35.1 µM in assay [7], 9.89 µM in assay [8], 3.73 µM in [9] and 11.1 µM in assay [10]. Also, the TGI in assay [1] was more than 100 µM; in [2], more than 100 µM; in assay [3], more than 100 µM; in assay [4] it was more than 100 µM; in assay [5], more than 100 µM; in assay [6], 36.4 µM. Also, the TGI in assay [7] was more than 100 µM; in assay [8], more than 100 µM; in [9], 47.6 µM; in assay [10], 84.7 µM.

On to `CSC(=Nc1nnc(-c2ccc([N+](=O)[O-])cc2)s1)SC`, for which the TGI in assay [1] is more than 100 µM; in assay [2], more than 100 µM; in assay [3], more than 100 µM; in assay [4], more than 100 µM; in assay [5], more than 100 µM; in assay [6], 33.1 µM. The TGI was more than 91.6 µM in [7], more than 100 µM in [8], more than 100 µM in [9] and more than 91.6 µM in assay [10].

Regarding `CCOC(=O)Nc1ccc2c(c1)/C(=N\NC(N)=S)c1ccccc1-2`, the GI50 in assay [1] is 5.94 µM; in assay [2], 3.77 µM; in assay [3], 4.43 µM; in assay [4], 3.25 µM; in assay [5], 3.74 µM; in assay [6], 8.49 µM. In addition, the GI50 in assay [7] is 4.95 µM; in [8], 3.94 µM; in assay [9], 2.48 µM; in assay [10] it was 5.88 µM. For the same compound, the TGI stood at 65.7 µM in assay [1]; 13.8 µM in assay [2]; 17.6 µM in [3]; 18.4 µM in assay [4]; 15 µM in assay [5]; 62.5 µM in assay [6]. The TGI in assay [7] was 15.8 µM; in [8], more than 44.8 µM; in [9] it was 9.84 µM; in [10] it was 28.1 µM.

Regarding `COc1ccc(-c2cc3c(c4cc(OC)ccc24)C(=O)OC3=O)cc1`, the TGI in assay [1], in assay [2], in assay [3], in [4], in [5] and in assay [6] was more than 100 µM throughout. Also, the TGI in assay [7], in assay [8], in [9] and in assay [10] was more than 100 µM in each case.

For `CCN1C(=O)N(CC)C2C1NN=c1s/c(=C\c3cccc(F)c3)c(=O)n12` (configuration not stated), the GI50 is 0.38 µM in [1]; 0.345 µM in [2]; 0.24 µM in assay [3]; 0.0549 µM in [4]; 0.243 µM in assay [5]; 1.44 µM in [6]. Moreover, the GI50 in [7] was 1.69 µM; in assay [8], 0.041 µM; in [9], 17.4 µM; in assay [10], 0.233 µM. For the same compound, the TGI in [1] was more than 100 µM; in assay [2] it was more than 100 µM; in [3], more than 100 µM; in [4], more than 100 µM; in assay [5], 4.92 µM; in assay [6] it was more than 79.8 µM. Moreover, the TGI in assay [7], in assay [8], in assay [9] and in assay [10] was more than 100 µM in each case.

Turning to `O=C1C(Cl)=C(Nc2cccc(Cl)c2)C(=O)N1Cc1ccc(Cl)cc1`, the GI50 in [1] is 1.24 µM; in [2] it was 0.833 µM; in assay [3] it was 0.119 µM; in [4], 0.43 µM; in assay [5], 1.46 µM; in assay [6] it was 1.3 µM. Besides, the GI50 in [7] was 2.2 µM; in [8], 0.858 µM; in assay [9], 3.38 µM; in assay [10], 1.19 µM. Moreover, the TGI in assay [1] was found to be 5.93 µM; in [2], 18.5 µM; in [3], 1.37 µM; in assay [4] it was 13 µM; in assay [5], 18.2 µM; in assay [6] it was 4.96 µM. For the same compound, the TGI in assay [8] is more than 94.1 µM; in assay [9] it was 34 µM; in assay [10], more than 39.3 µM.

Take `C=C(C)C(O)CCC1(C)C=Cc2c(c(C)cc3c2[nH]c2ccccc23)O1` (configuration not stated): the GI50 in assay [1] was 9.57 µM; in assay [2], 10.7 µM; in assay [4], 1.93 µM; in assay [5], 2.43 µM; in assay [6], 10.3 µM; in assay [7], 2.11 µM. Besides, the GI50 is 2.78 µM in [8] and 8.33 µM in [10]. The TGI in assay [1] was 25 µM and 21.5 µM; in [2], 25 µM and 22.9 µM; in [3] it was 22.7 µM and 21.7 µM; in assay [4] it was 8.23 µM and 4.71 µM; in assay [5], 9.81 µM and 6.13 µM; in [6] it was 25 µM and 22.8 µM. Also, the TGI is 8.32 µM in assay [7]; 24.6 µM and 7.13 µM in assay [8]; 21.5 µM in [9]; 25 µM and 22 µM in assay [10].

For `C=C(C)[C@@H]1CC[C@]2(C)CC[C@]3(C)[C@H](CC[C@@H]4[C@@]5(C)CC[C@H](O)C(C)(C)[C@@H]5CC[C@]43C)[C@@H]12`, the TGI in [1] was more than 100 µM; in assay [2], more than 64.2 µM; in assay [3] it was more than 86.5 µM; in assay [4], more than 100 µM; in [5], more than 100 µM; in assay [6] it was more than 100 µM. Further, the TGI in assay [7] is more than 100 µM; in assay [8] it was more than 68.8 µM; in assay [9], more than 100 µM; in assay [10], more than 100 µM.
